Source: patent publication US10765651B2, “Co-crystals of substituted glycine and uses thereof” (SyneuRx International (Taiwan) Corp., priority 2017, dated 2020)
In brackets after ≈: the same amount, converted by molar mass. Read-outs that look alike come from different tables or passages of the source.

Assays:
[1] = Hygroscopicity test, condition 2 (humidity chamber, weight change); assay type: physicochemical; conditions: for Weight change (%): dry before (change on drying to 0 hr weight)
[2] = Hygroscopicity test, condition 3 (dynamic vapor sorption, 0 to 90 to 0% RH); assay type: physicochemical; conditions: DVS, 25° C.
Procedure: Measurement were taken from 0 to 90 to 0% RH at 25° C. with 10% RH per step with equilibration set to dm/dt+0.01%/min for 10 min or 180 min/step.

[3] = 70-75% RH, room temperature, 3 days
physchem = conditions: water, thermodynamic from solid
[4] = DVS, 0 to 70 to 0% RH, 25° C.
Procedure: Measurement were taken from 0 to 70 to 0% RH at 25° C. with 10% RH per step with equilibration set to dm/dt+0.01%/min for 10 min or 180 min/step.

[5] = 30° C., 75% RH, 72 hr, listed as 2:1 N-methylglycine:L-tartaric acid co-crystal

| SMILES | Weight ([1]; 30° C., 75% RH, 0 hr) | Weight ([1]; 30° C., 75% RH, 1 hr) | Weight change (%), water absorbed ([1]; 30° C., 75% RH, 1 hr) | Weight ([1]; 30° C., 75% RH, 2 hr) | Weight change (%), water absorbed ([1]; 30° C., 75% RH, 2 hr) | Weight ([1]; 30° C., 75% RH, 3 hr) | Weight change (%), water absorbed ([1]; 30° C., 75% RH, 3 hr) | Weight ([1]; 30° C., 75% RH, 5 hr) | Weight change (%), water absorbed ([1]; 30° C., 75% RH, 5 hr) | Weight ([1]; 30° C., 75% RH, 24 hr) | Weight change (%), water absorbed ([1]; 30° C., 75% RH, 24 hr) | Weight ([1]; 30° C., 75% RH, 48 hr) | Weight change (%), water absorbed ([1]; 30° C., 75% RH, 48 hr) | Outward (appearance) ([1]; 30° C., 75% RH, 72 hr) | Weight ([1]; 30° C., 75% RH, 72 hr) | Weight change (%), water absorbed ([1]; 30° C., 75% RH, 72 hr) | Outward (appearance) ([1]; dry before) | Weight ([1]; dry before) | Weight change (%) [1] | Change In Mass (%) ([2]; RH 0%) | other results |
| --- | --- | --- | --- | --- | --- | --- | --- | --- | --- | --- | --- | --- | --- | --- | --- | --- | --- | --- | --- | --- | --- |
| CNCC(=O)O.CNCC(=O)O.O=C(O)C(O)C(O)C(=O)O [N-MG/L-TA = 2/1, N-methylglycine:L-tartaric acid 2:1 co-crystal] | 0.1455 g | 0.1462 g | (+0.4%) | 0.1463 g | (+0.5%) | 0.1464 g | (+0.6%) | 0.1465 g | (+0.7%) | 0.1465 g | (+0.7%) | 0.1465 g | (+0.7%) | Partial | 0.1471 g | (+1.1%) | White | 0.1457 g | (−0.1%) | 0.00% | Outward (appearance) [1, 5]: turned into a partial liquid; Weight change (%), water absorbed [1, 5]: 1.1%; Change In Mass (%) ([2]; RH 10%): 0.01%; Change In Mass (%) ([2]; RH 20%): 0.03%; Change In Mass (%) ([2]; RH 30%): 0.05%; Change In Mass (%) ([2]; RH 40%): 0.07%; Change In Mass (%) ([2]; RH 50%): 0.09%; Change In Mass (%) ([2]; RH 60%): 0.13%; Change In Mass (%) ([2]; RH 70%): 0.18%; Change In Mass (%) ([2]; RH 80%): 0.32%; Change In Mass (%) ([2]; RH 90%): 10.74%; Appearance after exposure to high humidity [3]: turned into moisturized and somewhat sticky white solid |
| CNCC(=O)O [N-MG, N-methylglycine, reference compound] | 0.1375 g | 0.1585 g | (+15.3%) | 0.1942 g | (+41.2%) | 0.2146 g | (+56.1%) | 0.2403 g | (+74.8%) | 0.2884 g | (+109.7%) | 0.2885 g | (+109.8%) | – | 0.2885 g | (+109.8%) | White | 0.1375 g | (−0%) | 0.0% | Outward (appearance) ([1]; 30° C., 75% RH, 1 hr): 90%; Outward (appearance) ([1]; 30° C., 75% RH, 3 hr): Liquid; Change In Mass (%) ([2]; RH 10%): 0.0%; Change In Mass (%) ([2]; RH 20%): 0.0%; Change In Mass (%) ([2]; RH 30%): 0.0%; Change In Mass (%) ([2]; RH 40%): 0.0%; Change In Mass (%) ([2]; RH 50%): 0.0%; Change In Mass (%) ([2]; RH 60%): 0.0%; Change In Mass (%) ([2]; RH 70%): 38.6%; Change In Mass (%) ([2]; RH 80%): 87.4%; Change In Mass (%) ([2]; RH 90%): 130.9%; solubility (physchem): 660 mg/mL (≈ 7410 mM) |
| CNCC(=O)O.O=C(O)C(O)C(O)C(=O)O [N-MG/L-TA = 1/1, N-methylglycine:L-tartaric acid (1:1) co-crystal] | 0.1432 g | 0.1437 g | (+0.3%) | 0.1437 g | (+0.3%) | 0.1439 g | (+0.4%) | 0.1439 g | (+0.4%) | 0.1440 g | (+0.5%) | 0.1440 g | (+0.5%) | remained as white powder | 0.1441 g | (+0.6%) | White | 0.1434 g | (−0.1%) | – | Weight change (%), water absorbed ([1]; 30° C., 75% RH, 5 hr, listed as N-methylglycine:L-tartaric acid co-crystal): 0.4%; Weight change (%), water absorbed ([1]; 30° C., 75% RH, 72 hr, listed as 1:1 N-methylglycine:L-tartaric acid co-crystal): 0.6%; Hygroscopicity comparison ([1]; 30° C., 75% RH, listed as 1:1 N-methylglycine:L-tartaric acid co-crystal): much less hygroscopic than 2:1 N-methylglycine:L-tartaric acid co-crystal; Hygroscopicity comparison [4]: less hygroscopic than N-methylgycine or L-tartaric acid individually; Appearance after exposure to high humidity [3]: remained as fine white powder; Hygroscopicity comparison [3]: much less hygroscopic than the 2:1 co-crystal |
